Reference: US10576082B2, “ErbB2 regulates autophagic flux to modulate the proteostasis of APP-CTFs in alzheimer's disease” (Academia Sinica, priority 2016, dated 2020)

Experiments:
[1] = tested on: γ-secretase-mediated proteolysis of C99 (CG cells); test: Cell-based C99-specific γ-secretase assay (CG cells, Gal4 luciferase reporter); details: dose-dependent manner
Experimental: (§1) (A) Adherent CG and NG cells (20,000 cells/well) were treated with 1 μM of the indicated ErbB1/2-selective tyrosine kinase inhibitors in the presence of 1 μg/ml tetracycline at 37° C. for 24 h. The luminescence signals emitted by cells treated with vehicle alone (Ctrl, 0.1% DMSO) were referred to as 100% relative luminescence signals. The luminescence signals generated by γ-secretase-mediated proteolysis of C99 (CG) or NΔE (NG) were determined using the Steady-Glo luciferase assay reagent. (B) HEK293 overexpressing C99-YFP cells were treated with 1 μM of the indicated ErbB1/2 tyrosine kinase inhibitors at 37° C. for 24 h. Clarified lysates were analyzed by Western blotting and quantified by Image J. (C) HEK293 overexpressing ErbB1 ErbB2, CFP-tagged C99, and YFP-tagged NΔE cells were infected with gene-targeting shRNA-encoding lentivirus (shErbB1 or shErbB2) at 37° C. for 48 h. Clarified lysates containing equivalent amounts of proteins were examined by Western blotting and quantified by Image J. (D) CG and NG cells were infected with gene-targeting shRNA-encoding lentivirus at 37° C. for 48 h. Following induction with 1 μg/ml tetracycline for 24 h. […] Data are shown as the mean±SD from three independent experiments, and were analyzed by Student's t-tests. * p<0.05. […]

[2] = tested on: γ-secretase-mediated proteolysis of NΔE (NG cells); test: Cell-based NΔE-specific γ-secretase assay (NG cells, Gal4 luciferase reporter); details: dose-dependent manner
Experimental: as §1

[3] = tested on: zebrafish embryos expressing GFP-tagged C99; test: Phenotype of C99-expressing zebrafish embryos (curved trunk, Notch-dependent somite development); assay type: in vivo; details: zebrafish, in vivo
[4] = tested on: γ-secretase cleavage of CFP-C99 and YFP-NΔE in HEK293 (CCNY) cells; test: Cell-based C99-NΔE dual γ-secretase assay (CCNY cells); details: CCNY cell line
Experimental: To generate a cellular γ-secretase assay that could be used to simultaneously identify cleavage of C99 and NΔE and the production of AICD and NICD, we […] HEK293 cells with pAS2-CCNY and selected transfectants with DMEM medium containing 10% FBS and 250 μg/ml zeocin. […] The CCNY clone was selected and optimized for the cell-based C99-NΔE dual γ-secretase assay.

[5] = tested on: HEK293 cells overexpressing ErbB1, ErbB2, CFP-tagged C99, and YFP-tagged NΔE; test: Lysosome inhibitor rescue after ErbB2 knockdown, Western blotting of HEK293 cells co-expressing ErbB1, ErbB2, CFP-C99, YFP-NΔE; assay type: cell-based; details: 10 μM chloroquine or 10 mM ammonium chloride, 37° C., 24 h after 48 h shRNA infection
Experimental: Clarified lysates containing equivalent amounts of proteins were analyzed by Western blotting. (B, C) HEK293 overexpressing CFP-LC3 cells were infected with lentivirus encoding shRNA targeting LacZ ErbB2, or ErbB2 plus ATG5 for 48 h. The autophagy induction was analyzed by fluorescence confocal microscopy. The number of CFP-LC3 puncta per cell was quantified. The levels of LC3-I, LC3-II, and GAPDH were analyzed by Western blotting. (D, E) HEK293 cells overexpressing ErbB1, ErbB2, CFP-tagged C99, and YFP-tagged NΔE were infected with lentivirus encoding shRNA targeting LacZ (Ctrl), ErbB1, or ErbB2 for 48 h. […] The levels of LC3-1, LC3-II, and p62 were analyzed by Western blotting and quantified by NIH Image J. Conditional media were harvested and processed for determination of secreted Aβ40 using a colourimetric Aβ40-specific ELISA kit. […] The quantitative data are shown as mean±SD from three independent experiments, and were analyzed by Student's t-tests. * p<0.05.
Preparation of cell extracts. […] Following the removal of cell debris by centrifugation, clarified lysates were processed for immunoprecipitation, Western blotting, or quantification of BCA protein content.
Western blotting analysis. Protein concentration was measured with the BCA Protein Assay Kit (Pierce). […]

SMILES	γ-secretase-dependent luciferase signals in CG cells [1]	γ-secretase-dependent luciferase signals in NG cells [2]	embryo phenotype (trunk, tail, pigmentation; developmental defects) [3]	cleavage of CFP-C99 and YFP-NΔE [4]	rescue of the reduction in C99 and AICD elicited by ErbB2 knockdown [5]
C[C@H](NC(=O)Cc1cc(F)cc(F)c1)C(=O)N[C@H](C(=O)OC(C)(C)C)c1ccccc1 [DAPT, N—[N-(3,5-difluorophenacetyl-L-alanyl)]-S-phenylglycine t-butyl ester]	decreased γ-secretase-dependent luciferase signals	decreased γ-secretase-dependent luciferase signals	severe developmental defects	completely suppressed	
Cl.N [ammonium chloride]					rescued
CCN(CC)CCCC(C)Nc1ccnc2cc(Cl)ccc12 (stereo not drawn) [chloroquine]					rescued
